# Reference: patent publication US7935722B2 (Eli Lilly and Company, priority 2005, dated 2011)
# pEC50, pKi: −log10 of the molar value. Like-named read-outs stand apart in the source and are kept apart here.
# Key:
# [1] = target: T1, human AR (androgen receptor) (Homo sapiens, UniProt P10275); assay: Steroid hormone nuclear receptor binding assay, AR binding
# T1 construct: expressed in transfected cells; host or cells: 293 cells (293-AR lysate)
# T1 sequence (P10275 1-920): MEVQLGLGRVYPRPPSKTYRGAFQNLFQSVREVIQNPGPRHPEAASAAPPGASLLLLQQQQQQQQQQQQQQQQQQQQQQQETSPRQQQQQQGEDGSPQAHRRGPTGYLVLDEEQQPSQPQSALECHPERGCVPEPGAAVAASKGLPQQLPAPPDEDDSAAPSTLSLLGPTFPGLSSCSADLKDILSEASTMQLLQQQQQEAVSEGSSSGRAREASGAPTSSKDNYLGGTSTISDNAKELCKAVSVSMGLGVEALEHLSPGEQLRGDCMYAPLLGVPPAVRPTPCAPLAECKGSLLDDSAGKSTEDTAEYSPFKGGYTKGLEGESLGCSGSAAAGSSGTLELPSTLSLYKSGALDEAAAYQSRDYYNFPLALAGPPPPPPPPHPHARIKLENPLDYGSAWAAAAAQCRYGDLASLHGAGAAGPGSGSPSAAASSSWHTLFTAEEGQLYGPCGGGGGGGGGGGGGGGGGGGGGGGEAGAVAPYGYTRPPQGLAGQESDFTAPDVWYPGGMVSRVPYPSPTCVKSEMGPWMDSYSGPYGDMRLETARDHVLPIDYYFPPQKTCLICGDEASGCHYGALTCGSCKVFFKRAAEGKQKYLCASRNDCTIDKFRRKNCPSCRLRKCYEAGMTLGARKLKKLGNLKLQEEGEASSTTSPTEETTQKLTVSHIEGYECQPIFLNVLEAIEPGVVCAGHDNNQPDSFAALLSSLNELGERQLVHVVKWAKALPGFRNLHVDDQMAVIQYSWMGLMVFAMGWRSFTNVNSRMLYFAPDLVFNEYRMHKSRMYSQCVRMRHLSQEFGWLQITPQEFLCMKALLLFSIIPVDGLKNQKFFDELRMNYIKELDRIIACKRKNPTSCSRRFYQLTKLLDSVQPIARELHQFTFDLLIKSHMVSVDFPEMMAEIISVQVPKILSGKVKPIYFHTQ
# Description: Cell lysates from 293 cells overexpressing human GR (glucocorticoid receptor), AR (androgen receptor), MR (mineralocorticoid receptor) or PR (progesterone receptor) are used for competition binding assays to determine Ki values for test compounds. […] Competing compounds are added at various concentrations ranging from about 0.01 nM to 10 μM. Non-specific binding is determined in the presence of 500 nM dexamethasone for GR binding, 500 nM aldosterone for MR binding, or 500 nM methyltrienolone for AR and PR binding. The binding reaction (140 μl) is incubated for overnight at 4° C., then 70 μl of cold charcoal-dextran buffer (containing per 50 ml of assay buffer, 0.75 g of charcoal and 0.25 g of dextran) is added to each reaction. Plates are mixed 8 minutes on an orbital shaker at 4° C. Plates are then centrifuged at 3,000 rpm at 4° C. for 10 minutes. An aliquot of 120 μl of the mix is transferred to another 96-well plate and 175 μl of Wallac Optiphase “Hisafe 3” scintillation fluid is added to each well. Plates are sealed and shaken vigorously on an orbital shaker. After an incubation of 2 hrs, plates are read in a Wallac Microbeta counter. […] The Kd for ^3H-dexamethasone for GR binding, ^3H-methyltrienolone for AR binding, ^3H-aldosterone for MR binding, or ^3H-methyltrienolone for PR binding, is determined by saturation binding. The IC50 values for test compounds are converted to Ki using Cheng-Prusoff equation and the Kd determined by saturation binding assay. […]
# [2] = target: T2, human androgen receptor (AR) (Homo sapiens, UniProt P10275); assay: C2C12 AR/ARE reporter assay; assay type: cell-based
# T2 construct: expressed in transfected cells; host or cells: mouse myoblast C2C12 cells, transiently co-transfected
# T2 sequence (P10275 1-920): T1 sequence (P10275 1-920)
# Description: As an indicator of agonist activity in muscle tissue, the C2C12 AR/ARE reporter assay is performed. Briefly, mouse myoblast C2C12 cells are co-transfected using FuGENE™. […] Cells are transfected in T150 cm^2 flasks in DMEM media with 4% or 10% Fetal Bovine Serum […]. After a 5 hour incubation, transfected cells are trypsinized, plated in 96 well dishes in DMEM media containing 10% charcoal-stripped FBS, incubated for 2 h and then exposed to various concentrations of test compounds ranging from about 0.01 nM to 10 μM. After 48 h of incubations with compounds, cells are lysed and luciferase activity is determined using standard techniques. Data is fit to a 4 parameter-fit logistics to determine EC50 values. The % efficacy is determined versus maximum stimulation obtained with 10 nM methyltrienolone. […]
# [3] = C2C12, read-out: C2C12 % Efficacy
# [4] = average of n trials, read-out: AR binding Ki
# [5] = C2C12 AR/ARE reporter assay, average of n trials, read-out: C2C12 % Efficacy
# [6] = C2C12 AR/ARE reporter assay, average of n trials, read-out: C2C12 EC50
Compound,pKi [1],pEC50 [2],"Emax [2, 3] [%]","pKi [1, 4]","Emax [2, 5] [%]","pEC50 [2, 6]"
CC(C)C(=O)NC1CCc2c(c3cc(C#N)ccc3n2Cc2cc(F)cc(F)c2)C1 (stereo not drawn) [Example 89],8.48,8.72,78.5,–,–,–
"CC(C)C(=O)NC1CCc2c(c3cc(C#N)ccc3n2Cc2ccccc2NS(C)(=O)=O)C1 (stereo not drawn) [Example 113, N-[6-Cyano-9-(2-methanesulfonylamino-benzyl)-2,3,4,9-tetrahydro-1H-carbazol-3-yl]-isobutyramide]",7.67,7.45,97.7,–,–,–
"Cc1nc(Cn2c3c(c4cc(C#N)ccc42)C[C@H](NC(=O)C(C)C)CC3)cs1 [Example 151, (R)-N-[6-cyano-9-(2-methyl-thiazol-4-ylmethyl)-2,3,4,9-tetrahydro-1H-carbazol-3-yl]-isobutyramide]",7.91,7.52,85.6,–,–,–
"COC(=O)N[C@@H]1CCc2c(c3cc(C#N)ccc3n2Cc2cccc(F)n2)C1 [Example 186, (R)-[6-Cyano-9-(6-fluoro-pyridin-2-ylmethyl)-2,3,4,9-tetrahydro-1H-carbazol-3-yl]-carbamic acid methyl ester]",8.15,7.76,103,–,–,–
"CC(C)C(=O)NC1CCc2c(c3cc(C#N)c(F)cc3n2Cc2cccc(F)c2)C1 (stereo not drawn) [Example 115, N-[6-Cyano-7-fluoro-9-(3-fluoro-benzyl)-2,3,4,9-tetrahydro-1H-carbazol-3-yl]-isobutyramide]",8.49,8.37,74.7,–,–,–
COc1ccc2c(c1)c1c(n2Cc2ccccc2OC)CCC(NC(=O)C(C)C)C1 (stereo not drawn) [Example 72],–,–,66.4,–,–,–
CCC(=O)NC1CCc2c(c3cc(Br)ccc3n2Cc2cccc(F)c2)C1 (stereo not drawn) [Example 175],8.49,7.95,80.2,–,–,–
"CC(C)C(=O)NC1CCc2c(c3cc(O)ccc3n2Cc2cccc(F)c2)C1 (stereo not drawn) [Example 91, N-[9-(3-Fluoro-benzyl)-6-hydroxy-2,3,4,9-tetrahydro-1H-carbazol-3-yl]-isobutyramide]",7.93,7.01,86.9,–,–,–
O=C(NC1CCc2c(c3cc(OC(F)(F)F)ccc3n2Cc2cccc(F)c2)C1)C1CC1 (stereo not drawn) [Example 167],8.11,7.86,82.4,–,–,–
"CC(C)C(=O)NC1CCc2c(c3cc(C#N)ccc3n2Cc2ccsc2)C1 (stereo not drawn) [Example 157, N-(6-Cyano-9-thiophen-3-ylmethyl-2,3,4,9-tetrahydro-1H-carbazol-3-yl)-isobutyramide]",–,–,–,8.28,72.3,8.52
"CC(C)C(=O)NC1CCc2c(c3cc([N+](=O)[O-])ccc3n2Cc2cccc(F)c2)C1 (stereo not drawn) [Example 61, N-[9-(3-Fluorobenzyl)-6-nitro-2,3,4,9-tetrahydro-1H-carbazol-3-yl]isobutyramide]",8.64,8.44,83.2,–,–,–
CC(C)C(=O)NC1CCc2c(c3cc(Cl)ccc3n2Cc2cccc(C(F)(F)F)c2)C1 (stereo not drawn) [Example 83],7.53,7.07,93.1,–,–,–
"CC(C)C(=O)NC1CCc2c(c3cc(C#N)ccc3n2Cc2cccc([N+](=O)[O-])c2)C1 (stereo not drawn) [Example 88, N-[6-cyano-9-(3-nitro-benzyl)2,3,4,9-tetrahydro-1H-carbazol-3-yl]-isobutyramide]",–,–,96.1,–,–,–
"CC(C)C(=O)NC1CCc2c(c3cc(C#N)ccc3n2Cc2cnc(Cl)s2)C1 (stereo not drawn) [Example 155, N-[9-(2-Chloro-thiazol-5-ylmethyl)-6-cyano-2,3,4,9-tetrahydro-1H-carbazol-3-yl]-isobutyramide]",7.87,6.99,54.8,–,–,–
COc1ccc2c(c1)c1c(n2Cc2ccncc2)CCC(NC(=O)C(C)C)C1 (stereo not drawn) [Example 145],5.86,5.69,46.6,–,–,–
"CC(C)C(=O)NC1CCc2c(c3cc(Cl)ccc3n2Cc2ccccc2O)C1 (stereo not drawn) [Example 101, N-[6-Chloro-9-(2-hydroxy-benzyl)-2,3,4,9-tetrahydro-1H-carbazol-3-yl]-isobutyramide]",8.28,8.39,65.3,–,–,–
"CC(C)C(=O)N[C@H]1CCc2c(c3cc(C#N)ccc3n2Cc2ccccc2N)C1 (single isomer, unassigned) [Example 111, S-N-[9-(2-Amino-benzyl)-6-cyano-2,3,4,9-tetrahydro-1H-carbazol-3-yl]-isobutyramide]",6.90,7.26,111,–,–,–
O=Cc1ccc2c(c1)c1c(n2Cc2ccccn2)CCC(NC(=O)C2CC2)C1 (stereo not drawn) [Example 206],7.00,6.69,96.1,–,–,–
"CC(C)C(=O)NC1CCc2c(c3cc(C(=O)C(F)(F)F)ccc3n2Cc2cccc(F)c2)C1 (stereo not drawn) [Example 210, N-[9-(3-Fluoro-benzyl)-6-(2,2,2-trifluoro-acetyl)-2,3,4,9-tetrahydro-1H-carbazol-3-yl]-isobutyramide]",7.81,7.75,71.2,–,–,–
CC(C)C(=O)NC1CCc2c(c3cc(Cl)ccc3n2Cc2cccc(Br)c2)C1 (stereo not drawn) [Example 81],7.95,7.03,81.9,–,–,–
"CC(C)C(=O)NC1CCc2c(c3cc(C#N)ccc3n2Cc2ccccc2[N+](=O)[O-])C1 (stereo not drawn) [Example 108, N-[6-Cyano-9-(2-nitro-benzyl)-2,3,4,9-tetrahydro-1H-carbazol-3-yl]-isobutyramide]",7.24,6.14,58.4,–,–,–
"Cc1nc(Cn2c3c(c4cc(C#N)ccc42)C[C@@H](NC(=O)C(C)C)CC3)cs1 [Example 152, (S)-N-[6-cyano-9-(2-methyl-thiazol-4-ylmethyl)-2,3,4,9-tetrahydro-1H-carbazol-3-yl]-isobutyramide]",6.68,6.39,61.1,–,–,–
"CC(C)C(=O)NC1CCc2c(c3c(F)c(C#N)ccc3n2Cc2cccc(F)c2)C1 (stereo not drawn) [Example 116, N-[6-Cyano-5-fluoro-9-(3-fluoro-benzyl)-2,3,4,9-tetrahydro-1H-carbazol-3-yl]-isobutyramide]",8.47,8.57,78.3,–,–,–
"CC(C)C(=O)NC1CCc2c(c3cc(C#N)ccc3n2Cc2ccc(Cl)s2)C1 (stereo not drawn) [Example 148, N-[9-(5-Chloro-thiophen-2-ylmethyl)-6-cyano-2,3,4,9-tetrahydro-1H-carbazol-3-yl]-isobutyramide]",–,–,–,8.14,86.7,7.62
COc1ccc(Cn2c3c(c4cc(OC)ccc42)CC(NC(=O)C(C)C)CC3)cc1 (stereo not drawn) [Example 74],–,–,22.6,–,–,–
COc1cccc(Cn2c3c(c4cc(F)ccc42)CC(NC(=O)C(C)C)CC3)c1 (stereo not drawn) [Example 10],–,–,40.4,–,–,–
COC(=O)c1cccc(Cn2c3c(c4cc(Cl)ccc42)CC(NC(=O)C(C)C)CC3)c1 (stereo not drawn) [Example 84],–,–,32.9,–,–,–
COc1ccc2c(c1)c1c(n2Cc2ccc(F)cc2)CCC(NC(=O)C(C)C)C1 (stereo not drawn) [Example 80],–,–,59.9,–,–,–
